# Reference: patent US20080300147A1, “Detection and Treatment of Fibrotic Disorders” (priority 2004, published 2008)
# Assays:
# leiomyoma = test: Realtime PCR mRNA expression in leiomyoma, GnRHa therapy vs untreated; format: in vivo, human
# Source text: (§1) Tissues. Portions of leiomyoma and matched myometrium were collected from premenopausal women (N=6) who were scheduled to undergo hysterectomy for indications related to symptomatic leiomyomas. Three of the patients received GnRHa therapy for three months prior to surgery. […] To maintain a standard, all leiomyomas selected for this study were between 2 to 3 cm in diameter. […] The tissues were collected at the University of Florida affiliated Shands Hospital with prior approval obtained from the Institutional Review Board.
# (§2) Quantitative RealTime PCR. Realtime PCR was utilized for verification of 10 differentially expressed and regulated genes identified in leiomyoma and myometrium as well as LSMC and MSMC from untreated and GnRHa-treated cohorts. The selection of these genes was based not only on their expression values (up or downregulation), but classification and biological functions important to leiomyoma growth and regression, regulation by ovarian steroids, GnRHa and TGF-β. They are IL-11, CITED2, Nur77, EGR3, TGIF, TIEG, p27, p57, GAS-1 and GPRK5 representing cytokines, transcription factors, cell cycle regulators and signal transduction.
# (§3) Portions of leiomyoma and matched myometrium were collected from premenopausal women (N=27) who were scheduled to undergo hysterectomy for symptomatic uterine leiomyomas at the University of Florida affiliated Shands Hospital. Of these patients seven received GnRHa therapy for a period of three months prior to surgery. […] To maintain a standard, leiomyomas used in this study were 2 to 3 cm in diameter. Prior approval was obtained from the University of Florida Institutional Review Board for the experimental protocol of this study.
# as §3, with “patients,” for “patients”
# (§4) Realtime PCR. Briefly, total RNA was isolated from leiomyoma and matched myometrium using Trizol Reagent (INVITROGEN, Carlsbad, Calif.) and complimentary DNA was generated from 2 μg of total RNA using Taqman reverse transcription reagent. The newly synthesized cDNA was used for PCR performed in 96-well optical reaction plates with cDNA equivalent to 100 ng RNA in a volume of 50 μl reaction containing 1× Taqman Universal Master Mix, optimized concentrations of FAM-labeled probe and specific forward and reverse primer for FMOD selected from Assay on Demand (APPLIED BIOSYSTEMS). Controls included RNA subjected to RT-PCR without reverse transcriptase and PCR with water replacing cDNA.
# myometrium = test: Realtime PCR mRNA expression in myometrium, GnRHa therapy vs untreated; format: in vivo, human
# Source text: as §1, §2, §3
# as §3, with “patients,” for “patients”
# as §4
# [1] = test system: leiomyoma smooth muscle cells (LSMC); test: Realtime PCR mRNA expression in treated LSMC; format: cell-based, human
# Experimental: Isolation and Culture of Leiomyoma and Myometrial Smooth Muscle Cells. […] Only untreated tissues were used for isolation of LSMC and MSMC. […] LSMC and MSMC were cultured in 6-well plates at an approximate density of 10^6 cells/well in DMEM-supplemented media containing 10% FBS. After reaching visual confluence, the cells were washed in serum-free media and incubated for 24 hrs under serum-free, phenol red-free condition (Chegini, N et al. Mol Hum Reprod, 2002, 8:1071-8).
# as §2
# Determination of TGF-β1 on global gene expression in LSMC and MSMC. All the materials utilized for this study including isolation of leiomyoma and myometrial cells are identical to those described in detail above. To determine the effect of TGF-β1 on global gene expression in LSMC and MSMC, the cells were cultured in 6-well plates at approximate density of 10^6 cells/well in DMEM-supplemented media containing 10% FBS. […] The cells were then treated with 2.5 ng/ml of TGF-β1 (R & D System, Minneapolis, […].) for 2, 6 and 12 hours. […] The cells were washed and then treated with TGF-β1 (2.5 ng/ml) for 2 hours. Parallel experiments using untreated cells were used as controls including an additional control for TGF-β type II receptor antisense and sense experiments.
# Total cellular RNA was isolated from LSMC- and MSMC-treated and untreated controls and subjected to microarray analysis. To maintain standard and allow for comparative analysis, the GeneChips used in this study were utilized, simultaneously processed and their gene expression values were subjected to global normalization and transformation. Following these unsupervised assessments the coefficient of variation was calculated for each probe set across all the chips used in this study, and the selected gene expression values of this study were independently subjected to supervised learning including R programming analysis and ANOVA with false discovery rate selected at p<0.001 (Moustakas, A. Immunol Lett, 2002, 82:85-91; Verrecchia, F. et al. J Biol Chem, 2001, 276:17058-17062). The genes identified in these cohorts were analyzed for functional annotation and visualized using Database for Annotation, Visualization, and Integrated Discovery (DAVID) software with integrated GoCharts. Following the analysis, we selected 12 of the differentially expressed and regulated genes, including 10 identified and validated in leiomyoma and myometrium from untreated and GnRHa-treated cohorts, as well as LSMC and MSMC treated in vitro with GnRHa, for validation in response to TGF-β-time dependent action using Realtime PCR. They include IL-11, EGR3, CITED2, TIEG, TGIF, Nur77, p27, p57, GAS-1 and GPRK5. In addition, the expression of Runx1 and Runx2, transcription factors that interact with TGF-β receptor signaling pathways (Zavadil, J. et al. Proc Natl Acad Sci USA, 2001, 98:6686-6691), was validated in LSMC and MSMC as well as in leiomyoma and myometrium from GnRHa-treated and untreated cohorts. Detail description of the materials and methods for Realtime PCR as well as data analysis is provided in Chegini, N. et al. J Soc Gynecol Investig, 2003, 10:161-71.
# Isolation and Culture of Leiomyoma and Myometrial Smooth Muscle Cells. Leiomyoma and myometrial smooth muscle cells (LSMC and MSMC) were isolated and cultured as previously described (Chegini, N. et al. Mol Hum Reprod, 2002, 8:1071-1078). […]
# [2] = GnRHa therapy three months (N=7) vs untreated
# [3] = GnRHa therapy three months vs untreated
# [4] = GnRHa 0.1 μM, 2, 6 and 12 hours
compound,measurement,setting,value
"CCNC(=O)[C@@H]1CCCN1C(=O)[C@H](CCCNC(=N)N)NC(=O)[C@H](CC(C)C)NC(=O)[C@@H](CC(C)C)NC(=O)[C@H](Cc1ccc(O)cc1)NC(=O)[C@H](CO)NC(=O)[C@H](Cc1c[nH]c2ccccc12)NC(=O)[C@H](Cc1c[nH]cn1)NC(=O)[C@@H]1CCC(=O)N1 [GnRHa, leuprolide acetate]",FMOD mRNA expression in leiomyoma,leiomyoma; [2],significantly reduced
same,CCN2 mRNA expression in leiomyoma,leiomyoma; [3],alters
same,CCN3 mRNA expression in leiomyoma,leiomyoma; [3],without affecting
same,CCN4 mRNA expression in leiomyoma,leiomyoma; [3],without affecting
same,fibulin-1C mRNA expression in leiomyoma,leiomyoma; [3],without affecting
same,CITED2 expression in leiomyoma,leiomyoma; GnRHa therapy vs untreated,increased
same,GPRK5 expression in leiomyoma,leiomyoma; GnRHa therapy vs untreated,inhibits
same,IL-11 expression in leiomyoma,leiomyoma; GnRHa therapy vs untreated,suppressed
same,Nur77 expression in leiomyoma,leiomyoma; GnRHa therapy vs untreated,significant elevation
same,FMOD mRNA expression in myometrium,myometrium; [2],significantly reduced
same,CCN3 mRNA expression in myometrium,myometrium; [3],significant reduction
same,CCN4 mRNA expression in myometrium,myometrium; [3],significant reduction
same,S100A4 mRNA expression in myometrium,myometrium; [3],significant reduction
same,CITED2 expression in myometrium,myometrium; GnRHa therapy vs untreated,increased
same,GPRK5 expression in myometrium,myometrium; GnRHa therapy vs untreated,inhibits
same,IL-11 expression in myometrium,myometrium; GnRHa therapy vs untreated,suppressed
same,Nur77 expression in myometrium,myometrium; GnRHa therapy vs untreated,significant elevation
same,CITED2 expression in LSMC,[1]; [4],inhibiting
same,GPRK5 expression in LSMC,[1]; [4],inhibits
same,CCN2 mRNA expression in LSMC,"[1]; GnRHa 0.1 μM, 2, 6 and 12 hrs",inhibited
same,CCN3 mRNA expression in LSMC,"[1]; GnRHa 0.1 μM, 2, 6 and 12 hrs",inhibited
same,CCN4 mRNA expression in LSMC,"[1]; GnRHa 0.1 μM, 2, 6 and 12 hrs",inhibited
same,S100A4 mRNA expression in LSMC,"[1]; GnRHa 0.1 μM, 2, 6 and 12 hrs",inhibited
same,fibulin-1C mRNA expression in LSMC,"[1]; GnRHa 0.1 μM, 2, 6 and 12 hrs",inhibited
same,FMOD expression in LSMC,"[1]; GnRHa 0.1 μM, 2 and 6 hrs",no significant effect
same,FMOD expression in LSMC,"[1]; GnRHa 0.1 μM, 12 hrs",inhibited
same,IL-11 expression in LSMC,"[1]; GnRHa 0.1 μM, within 2 to 6 hours, control levels after 12 hours",increased
same,Nur77 expression in LSMC,"[1]; GnRHa 0.1 μM, subsequently fell below untreated levels",rapid induction
